Measurements reported in patent US6624163B2, “Benzothiazole derivatives” (Hoffman-La Roche Inc., priority 2001, dated 2003).

What was measured:
[1] = target: T1, human adenosine A2A receptor (Homo sapiens, UniProt P29274); experiment: [3H]-SCH-58261 binding assay, human adenosine A2A receptor expressed in CHO cell membranes (SPA); conditions: [3H]-SCH-58261 (1 nM) displacement; recombinant receptor in CHO cell membranes; Ki by Cheng-Prussoff from IC50; read-out: hA2 (pKi) (converted)
T1 construct: expressed in transfected cells; host or cells: CHO cells, semliki forest virus expression system; membrane preparation
T1 sequence (P29274 whole entry): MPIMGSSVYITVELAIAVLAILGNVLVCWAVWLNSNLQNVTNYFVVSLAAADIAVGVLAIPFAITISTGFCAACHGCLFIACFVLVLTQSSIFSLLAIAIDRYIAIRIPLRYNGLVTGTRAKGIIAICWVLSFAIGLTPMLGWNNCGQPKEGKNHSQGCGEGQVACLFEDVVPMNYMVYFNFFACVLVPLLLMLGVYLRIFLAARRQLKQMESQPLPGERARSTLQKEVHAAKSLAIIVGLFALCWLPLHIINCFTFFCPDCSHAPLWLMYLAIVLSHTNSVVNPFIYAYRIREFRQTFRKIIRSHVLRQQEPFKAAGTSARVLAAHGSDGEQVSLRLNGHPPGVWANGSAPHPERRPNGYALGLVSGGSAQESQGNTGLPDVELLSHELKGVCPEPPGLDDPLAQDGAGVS
Procedure: Human Adenosine A2A Receptor
The human adenosine A2A receptor was recombinantly expressed in chinese hamster ovary (CHO) cells using the semliki forest virus expression system. Cells were harvested, washed twice by centrifugation, homogenised and again washed by centrifugation. The final washed membrane pellet was suspended in a Tris (50 mM) buffer containing 120 mM NaCl, 5 mM KCl, 2 mM CaCl2 and 10 mM MgCl2 (pH 7.4) (buffer A). The [^3H]-SCH-58261 (Dionisotti et al., 1997, Br J Pharmacol 121, 353; 1 nM) binding assay was carried out in 96-well plates in the presence of 2.5 μg of membrane protein, 0.5 mg of Ysi-poly-1-lysine SPA beads and 0.1 U adenosine deaminase in a final volume of 200 μl of buffer A. Non-specific binding was defined using xanthine amine congener (XAC; 2 μM). Compounds were tested at 10 concentrations from 10 μM −0.3 nM. All assays were conducted in duplicate and repeated at least two times. Assay plates were incubated for 1 hour at room temperature before centrifugation and then bound ligand determined using a Packard Topcount scintillation counter. IC50 values were calculated using a non-linear curve fitting program and Ki values calculated using the Cheng-Prussoff equation.

Compound	Ki [1] [nM]	melting point [°C]
CCC(=O)NCc1ccc(C(=O)Nc2nc3c(OC)ccc(N4CCOCC4)c3s2)cc1 [Example 7, N-(4-Methoxy-7-morpholin-4-yl-benzothiazol-2-yl)-4-(propionylamino-methyl)-benzamide]	1	
COc1ccc(N2CCOCC2)c2sc(NC(=O)c3ccc(CN(C)C(C)=O)cc3)nc12 [Example 10, 4-[(Acetyl-methyl-amino)-methyl]-N-(4-methoxy-7-morpholin-4-yl-benzothiazol-2-yl)-benzamide]	1	
COc1ccc(N2CCOCC2)c2sc(NC(=O)c3ccc(CNC(=O)C4CCC4)cc3)nc12 [Example 11, 4-[(Cyclobutanecarbonyl-amino)-methyl]-N-(4-methoxy-7-morpholin-4-yl-benzothiazol-2-yl)-benzamide]	0.501	
COCC(=O)N(C)Cc1ccc(C(=O)Nc2nc3c(OC)ccc(N4CCOCC4)c3s2)cc1 [Example 2, 4-[(Methoxyacetyl-methyl-amino)-methyl]-N-(4-methoxy-7-morpholin-4-yl-benzothiazol-2-yl)-benzamide]	1.26	
COc1ccc(N2CCOCC2)c2sc(NC(=O)c3ccc(CN(C)C(=O)CN4CCCC4)cc3)nc12 [Example 19, N-(4-Methoxy-7-morpholin-4-yl-benzothiazol-2-yl)-4-{[methyl-(pyrrolidin-1-yl-acetyl)-amino]-methyl}-benzamide]	1.58	114 to 116
COc1ccc(N2CCOCC2)c2sc(NC(=O)c3ccc(CN(C)C(=O)C4CCC4)cc3)nc12 [Example 5, 4-[(Cyclobutanecarbonyl-methyl-amino)-methyl]-N-(4-methoxy-7-morpholin-4-yl-benzothiazol-2-yl)-benzamide]	0.794	
COCC(=O)NCc1ccc(C(=O)Nc2nc3c(OC)ccc(N4CCOCC4)c3s2)cc1 [Example 1, 4-[(2-Methoxy-acetylamino)-methyl]-N-(4-methoxy-7-morpholin-4-yl-benzothiazol-2-yl)-benzamide]	0.794	
CCC(=O)N(C)Cc1ccc(C(=O)Nc2nc3c(OC)ccc(N4CCOCC4)c3s2)cc1 [Example 6, N-(4-Methoxy-7-morpholin-4-yl-benzothiazol-2-yl)-4-[(methyl-propionyl-amino)-methyl]-benzamide]	0.631	
CCC(=O)N(CC)Cc1ccc(C(=O)Nc2nc3c(OC)ccc(N4CCOCC4)c3s2)cc1 [Example 14, 4-[(Ethyl-propionyl-amino)-methyl]-N-(4-methoxy-7-morpholin-4-yl-benzothiazol-2-yl)-benzamide]	1.26	
COc1ccc(N2CCOCC2)c2sc(NC(=O)c3ccc(CN(C)C(=O)CN(C)C)cc3)nc12 [Example 15, 4-[(Dimethylaminoacetyl-methyl-amino)-methyl]-N-(4-methoxy-7-morpholin-4-yl-benzothiazol-2-yl)-benzamide]	1.26	
COc1ccc(N2CCOCC2)c2sc(NC(=O)c3ccc(CN(C)C(=O)C4CC4)cc3)nc12 [Example 4, 4-[(Cyclopropanecarbonyl-methyl-amino)-methyl]-N-(4-methoxy-7-morpholin-4-yl-benzothiazol-2-yl)-benzamide]	0.631	
COc1ccc(N2CCOCC2)c2sc(NC(=O)c3ccc(CNC(C)=O)cc3)nc12 [Example 12, 4-(Acetylamino-methyl)-N-(4-methoxy-7-morpholin-4-yl-benzothiazol-2-yl)-benzamide]	0.794	
COc1ccc(N2CCOCC2)c2sc(NC(=O)c3ccc(CNC(=O)C4CC4)cc3)nc12 [Example 9, 4-[(Cyclopropanecarbonyl-amino)-methyl]-N-(4-methoxy-7-morpholin-4-yl-benzothiazol-2-yl)-benzamide]	1	
COCCN(C)CC(=O)N(C)Cc1ccc(C(=O)Nc2nc3c(OC)ccc(N4CCOCC4)c3s2)cc1 [Example 18, 4-[({[(2-Methoxy-ethyl)-methyl-amino]-acetyl}-methyl-amino)-methyl]-N-(4-methoxy-7-morpholin-4-yl-benzothiazol-2-yl)-benzamide]		171 to 173
